14 molecules from ChEMBL document CHEMBL6078635, “Advances in diarylpyrimidines and related analogues as HIV-1 nonnucleoside reverse transcriptase inhibitors (2019-2023)” (Eur J Med Chem, 2024) can be followed below.

Data set [1] in a line: Selectivity index, ratio of CC50 for cytotoxicity against human MT4 cells to EC50 for antiviral activity against wild type HIV-1 IIIB infected in human MT4 cells. The class given is toxicity, cell-based. The following applies: read-out: Selectivity Index.
Data set [2] has as its system Human immunodeficiency virus 1. The data set is described as follows: Antiviral activity against wild type HIV-1. The class given is functional, organism-based.
Data set [3] deals with Human immunodeficiency virus 1. The data set is described as follows: Antiviral activity against HIV1 harboring K103N/Y181C double mutant. It counts as functional, organism-based.
The subject of data set [4] is MT4. The data set is described as follows: Cytotoxicity against human MT4 cells assessed as reduction in cell viability after 5 days by MTT assay. It counts as functional. The following applies: MT4, 120 h, time 5 day. (In general: Tetrazolium assays rely on reduction of a dye to a coloured formazan, in cell work by metabolically active cells.)
Data set [5] relates to Human immunodeficiency virus 1. As to the kind of experiment: Antiviral activity against HIV-1 […] mutant. The class given is functional, organism-based.
The test system of data set [6] is Human immunodeficiency virus 1. The data set is described as follows: Antiviral activity against HIV1 harboring F227L/V106A double mutant infected in MT4 cells. It counts as functional, organism-based. The following applies: Human immunodeficiency virus 1, MT4.
Data set [7] deals with Human immunodeficiency virus 1. As to the kind of experiment: Antiviral activity against HIV1 harboring K103N mutant infected in MT4 cells. It counts as functional, organism-based. To be noted: Human immunodeficiency virus 1, MT4.
Data set [8] deals with Human immunodeficiency virus 1. As to the kind of experiment: Antiviral activity against HIV1 harboring Y181C mutant infected in MT4 cells. To be noted: Human immunodeficiency virus 1, MT4. It counts as functional, organism-based.
For data set [9], the system named is Human immunodeficiency virus 1. The data set is described as follows: Antiviral activity against HIV1 harboring E138K mutant infected in MT4 cells. The following applies: Human immunodeficiency virus 1, MT4. It counts as functional, organism-based.
For data set [10], the system named is Human immunodeficiency virus 1. As to the kind of experiment: Antiviral activity against HIV1 harboring Y188L mutant infected in MT4 cells. The class given is functional, organism-based. The following applies: Human immunodeficiency virus 1, MT4.
Data set [11] deals with Human immunodeficiency virus 1. As to the kind of experiment: Antiviral activity against wild type HIV-1 3B. The following applies: Human immunodeficiency virus 1, 3B. It counts as functional, organism-based.
The nature of data set [12]: Oral bioavailability in human. To be noted: in vivo. It counts as ADME, organism-based.
Data set [13] has as its target Human immunodeficiency virus type 1 reverse transcriptase (Human immunodeficiency virus 1, UniProt Q72547). As to the kind of experiment: Inhibition of wild type HIV-1 Reverse transcriptase.
In data set [14] the test system is Human immunodeficiency virus 1. The data set is described as follows: Antiviral activity against HIV-1 Y188L mutant infected in human MT4 cells assessed as reduction in virus induced cytopathic effect incubated for 5 days by MTT method. To be noted: Human immunodeficiency virus 1, MT4, 120 h. The class given is functional, organism-based. A general note: Damage to the host cells serves as the signal in cytopathic effect assays.

Data set [15] has as its system Human immunodeficiency virus 1. The data set is described as follows: Antiviral activity against wild type HIV-1 3B infected in human MT4 cells assessed as inhibition of virus-induced cytopathic effect measured for 5 days by MTT assay. The class given is functional, organism-based. To be noted: Human immunodeficiency virus 1, 3B, MT4, 120 h.
The test system of data set [16] is Human immunodeficiency virus 1. The data set is described as follows: Antiviral activity against HIV1 harboring K103N mutant infected in MT4 cells assessed as inhibition of viral growth. It counts as functional, organism-based. The following applies: Human immunodeficiency virus 1, MT4.
For data set [17], the system named is Human immunodeficiency virus 1. The data set is described as follows: Antiviral activity against HIV-1 3B harboring L100I mutant infected in MT4 cells assessed as reduction in virus induced cytopathic effect incubated for 5 days by MTT method. To be noted: Human immunodeficiency virus 1, 3B, MT4, 120 h. It counts as functional, organism-based.
For data set [18], the system named is Human immunodeficiency virus 1. As to the kind of experiment: Antiviral activity against HIV-1 3B harboring F227L/V106A double mutant infected in MT4 cells assessed as reduction in virus induced cytopathic effect incubated for 5 days by MTT method. The following applies: Human immunodeficiency virus 1, 3B, MT4, 120 h. The class given is functional, organism-based.

Data set [19] concerns Human immunodeficiency virus 1. The data set is described as follows: Antiviral activity against NNRTI-resistant HIV-1 harboring Y181C mutant assessed as inhibition of viral growth. It counts as functional, organism-based.
The subject of data set [20] is Human immunodeficiency virus 1. As to the kind of experiment: Antiviral activity against HIV-1 3B harboring E138K mutant infected in MT4 cells assessed as reduction in virus induced cytopathic effect incubated for 5 days by MTT assay. The class given is functional, organism-based. The following applies: Human immunodeficiency virus 1, 3B, MT4, 120 h.

pEC50, pIC50: −log10 of the molar value.

`N#Cc1ccc(Nc2nccc(Oc3ccc4cc(C#N)ccc4c3Br)n2)cc1`: the selectivity ratio in data set [1] amounted to 181000. The pEC50 (as a rule, the EC50 on a negative log10 scale, so that one unit is a factor of ten) in data set [2] is 8.70; in data set [3], 6.62. Also, the CC50 (as a rule, the concentration that lowers cell viability or growth by half) in data set [4] was determined as 283000 nM.
On to `COc1cc2cc(C#N)ccc2c(OC)c1Oc1ccnc(Nc2ccc(C#N)cc2)n1`, for which the selectivity ratio in [1] is > 25000. Moreover, the negative-log EC50 (pEC50) in [2] is 8.30; in data set [3], 6.80. The CC50 in data set [4] is > 118000 nM.
With `Cc1cc(C#N)cc(C)c1Oc1ccnc(S(=O)(=O)CC(=O)Nc2ccc(C#N)cc2)n1`, the selectivity ratio in data set [1] was > 3540. This molecule also had a pEC50 in data set [2] of 8.70. Also, in data set [4], the CC50 was > 6010 nM.
With `Cc1cc(-c2ccc(C#N)cc2)cc(C)c1Nc1ccnc(Nc2ccc(C#N)cc2)n1`, the selectivity ratio in [1] came to 2060. The CC50 in [4] was 2080 nM.
Turning to `N#Cc1ccc(Nc2nccc(Oc3ccc4ccccc4c3Br)n2)cc1`, the selectivity ratio in data set [1] was determined as 65600. Also, the pEC50 in [2] is 8.62; in data set [3], 5.17. In addition, the CC50 in data set [4] worked out at 154000 nM.
`Cc1cc(C(C#N)c2ccccc2F)nc(Nc2ccc(C#N)cc2)n1` (stereo not drawn) had a negative logarithm of the EC50 (pEC50) in data set [2] of 8.74.
For `Cc1cc(C#Cc2cccnc2)cc(C)c1Oc1ccnc(Nc2ccc(C#N)cc2)n1`, the pEC50 in [5] is 7.12; in data set [6] it was 6.68; in [7], 8.00; in [2], 8.52; in data set [3], 6.03. In data set [4], the CC50 was found to be 3480 nM.
Consider `N#Cc1ccc(Nc2nccc(/C(=N/O)c3ccc(-c4ccc(F)cc4)cc3F)n2)cc1`, for which the pEC50 in [8] was 6.74; in data set [9], 6.77; in [10] it was 5.46; in data set [5], 6.40; in data set [6] it was 5.34; in data set [7], 6.30. In addition, the figures for the pEC50 in data set [2] and in data set [3] were 7.92 and 4.64, respectively. For the same molecule, in data set [4], the CC50 was > 292000 nM.
On to `Cc1cc(/C=C/C#N)cc([N+](=O)[O-])c1Nc1nc(Nc2ccc(C#N)cc2)nc2ccccc12`, for which the negative-log EC50 (pEC50) in data set [11] is 8.47. Moreover, the bioavailability – broadly, dose-corrected exposure relative to a reference, in per cent – in data set [12] was determined as 16.5%.
In data set [11], `Cc1cc(/C=C/C#N)cc([N+](=O)[O-])c1Nc1nc(Nc2ccc(C#N)cc2)nc2ccc(Cl)cc12` gave a pEC50 of 7.97. In [12], this molecule registered a bioavailability of 16%.
Take `N#Cc1ccc(Nc2ncc(C(N)=O)c(Oc3ccc4cc(C#N)ccc4c3)n2)cc1`: the selectivity ratio in data set [1] was 84700. In addition, the negative-log EC50 (pEC50) in [9] is 7.96; in data set [2], 8.43. Also, the cytotoxic concentration (CC50) in [4] is > 307000 nM.
For `Cc1cc(-c2ccc(C#N)cc2)cc(C)c1Oc1ccnc(S(=O)(=O)CC(=O)Nc2ccc(C#N)cc2)n1`, the pIC50 (as a rule, the negative decadic logarithm of the IC50, by convention in mol/L) in [13] was 6.85. The selectivity ratio in [1] came out at 4070. The pEC50 in [8] is 7.59; in data set [9], 7.59; in data set [10] it was 6.91; in data set [5], 8.10; in data set [6], 6.19; in data set [7] it was 8.22. Further, the pEC50 in data set [2] was 8.22; in [3] it was 6.65. In [4], the CC50 worked out at 24400 nM.
`COc1ccc(-c2cc(C)c(Oc3nc(NC4CCN(Cc5ccc(C(N)=O)cc5)CC4)nc4ccsc34)c(C)c2)cc1`: the pEC50 in [14] is 6.96; in data set [15], 7.28; in data set [16] it was 7.23; in data set [17], 6.57; in data set [18] it was 6.53; in data set [19], 6.80. Further, the pEC50 in [3] was 5.95; in data set [20], 6.83.
With `Cc1cc(-c2ccc(N(C)C)cc2)cc(C)c1Oc1nc(NC2CCN(Cc3ccc(C(N)=O)cc3)CC2)nc2ccsc12`, the pEC50 is 6.25 in data set [14]; 6.75 in data set [15]; 6.76 in data set [16]; 5.95 in [17]; 5.90 in [18]; 6.23 in [19]. Moreover, the results for the pEC50 in data set [3] and in data set [20] were < 4.63 and 6.61, respectively.
